Reference: publication PMC8233378, “Acyclic nucleoside phosphonates with adenine nucleobase inhibit Trypanosoma brucei adenine phosphoribosyltransferase in vitro” (Scientific Reports, 2021)
Where a name gives a salt, the structure may show the parent alone. Read-outs that look alike come from different tables or passages of the source. One block for each compound: values may come before it.

Experiments:
[1] = target: recombinant T. brucei APRT1 (Trypanosoma brucei brucei, UniProt Q57V32); assay: Inhibition of recombinant APRT1, continuous spectrophotometric assay (adenine to AMP, 256 nm); type: biochemical; conditions: recombinant APRT1 280 nM, 1 mM PRib-PP, 60 μM adenine, pH 8.4, 25 °C
Source text: To test if the newly synthesized ANPs with an adenine as a nucleobase can inhibit the activity of the APRT1 and APRT2, both enzymes were overexpressed in E. coli. […] First, we monitored the APRT1 enzyme activity by a continuous spectrophotometric assay measuring the conversion of adenine to AMP at 256 nm.
The T. brucei aprt1 and aprt2 genes were PCR amplified using oligonucleotides listed in Supplementary File S1, digested with BglII or BamHI and XhoI enzymes and ligated into the pSKB3 expression vector. The pSKB3 vector carries a 6 × His-tag and an AcTEV cleavage site upstream of BamHI restriction site. A BglII or BamHI restriction site was introduced at the 5′ end of the respective genes instead of the initiation methionine codon to maintain the 6 × His-tag and AcTEV recognition motif in frame with the genes. The verified plasmids were transformed into the BL21(DE3) E. coli cells. The 6xhis-tagged recombinant APRT1 protein was purified under native conditions using the ÄKTA prime plus instrument. Elution fractions were analyzed by SDS-PAGE, and those containing APRT1 were pooled and dialyzed against 50 mM Tris–HCl, pH 8.0, 150 mM NaCl, 5 mM MgCl2, 10% glycerol. Bradford protein assay (BioRad) was used to determine protein concentrations. The APRT1 recombinant protein was sent for antibody production to Davids Biotechnology (Regensburg, Germany). Recombinant APRT1 was subsequently used in all in vitro assays.
The methodology was adapted from Ref.[6]. Briefly, the enzyme kinetics of APRT1 were measured by a continuous spectrophotometric assay measuring the conversion of adenine to AMP, at 256 nm. The concentration of enzyme in the assay was 140 nM, the concentration of PRib-PP was kept at 1 mM and the adenine concentration varied from 3.75 to 60 μM. The reaction was carried out using a 1.0 cm path length with a UV Visible spectrometer 1601 (Shimadzu) in the reaction buffer (0.1 M Tris, pH 8.4; 0.11 M MgCl2; at 25 °C). The initial velocity (V0 [µM/min]) was calculated using Beer–Lambert law for different concentration of the purine substrate molecules: A = Δε × L × c where A is the measured absorbance, Δε is constant 2100 M^−1 cm^−1 for adenine, c is a concentration of the product formed in one minute (V0) and L is the length of a cuvette. The Km, Vmax and kcat values were calculated using GraphPad Prism 9 according to Michaelis–Menten kinetics. The Ki values of the inhibitors for APRT1 were determined in the same reaction buffer containing 1 mM PRib-PP, 60 μM adenine and 280 nM APRT1. The concentrations of inhibitors in the assay ranged from 1 nM to 100 μM, depending on the activity of the compound. The reaction was preceded by 1 min incubation of the respective enzyme with the given inhibitor. The Ki values were calculated using non-linear regression in GraphPad Prism 9.

[2] = Cytotoxicity of the prodrug in human cells (CellTiter-Glo 2.0), HeLa S3; type: cell-based; conditions: human, HeLa S3 cells; HeLa S3, 10 µM; read-out: Cytotoxicity of prodrug: HeLaS3 viability
Procedure: (§1) Compound cytotoxicity was evaluated in Hela S3 cancer cells and non-tumor human dermal fibroblasts (NHDF). All cell lines were obtained from ATCC (Manassas, VA, USA). The cytotoxicity was assayed using CellTiter-Glo® 2.0 detection reagent (Promega, Madison, USA) according to the manufacturer’s protocol.

[3] = Cytotoxicity of the prodrug in human cells (CellTiter-Glo 2.0), NHDF; type: cell-based; conditions: human, normal human dermal fibroblasts (NHDF), NHDF
Procedure: as §1

T. brucei BSF427 = assay: Alamar Blue assay, BSF427 cells; type: cell-based; conditions: Trypanosoma brucei, read-out: T. brucei BSF EC50
Procedure: The bloodstream form (BSF) T. b. brucei Lister 427 and single marker (SM) strains were cultivated in HMI-11 medium and 10% FBS at 37 °C in a humidified atmosphere at 5% CO2[26]. HMI-11 medium containing dialyzed 10% FBS and only one defined source of the purine base, adenine, was used for selected experiments (50 μM, HMI-11^adenine). The SM cell line constitutively expressing ectopic T7 RNA polymerase and tetracycline repressor was used for the tetracycline-inducible expression of dsRNA and V5-tagged proteins. To generate SKD APRT1 and DKD APRT1/2 RNAi cell lines, the 524 bp and 537 bp fragments of the aprt-I (Tb927.7.1780) and aprt-II (Tb927.7.1790) open reading frames, respectively, were PCR amplified from T. brucei BSF427 genomic DNA with the oligonucleotides (Supplementary File S1). The APRT1 fragment was cloned into the p2T7-TABlue, while the APRT2 fragment was cloned into, into the p2T7-177 plasmid. The p2T7-TABlue plasmid containing the APRT1 fragment was electroporated to SM cells which were subjected to selection with hygromycin (5 µg/ml). Verified SKD APRT1 cell line was then transfected with Not-1 linearized p2T7-177 plasmid containing the APRT2 fragment and the resulting DKD APRT1/2 cell line was selected with phleomycin (2.5 µg/ml). For the inducible expression of V5-tagged APRT1 andAPRT2, the coding sequences of the respective genes were PCR amplified using oligonucleotides listed in Supporting Information S1. The obtained PCR fragments were cloned into the pT7_N-term-V5 vector[6] using BglII or BamHI and XbaI restriction enzymes. Plasmids were then transfected to SM BSF cells. The resulting transfectants were established in medium containing puromycin (0.1 µg/ml). The induction of the dsRNA or tagged proteins was triggered by the addition of 1 µg/ml of tetracycline into the medium.
An Alamar Blue Assay was performed in a 96-well plate format to screen for sensitivity of T. brucei BSF cells to ANPs as previously published. The EC50 values were calculated using non-linear regression in GraphPad Prism 9.

T. brucei BSF cells = assay: Cell cycle analysis of treated trypanosomes (microscopy, flow cytometry with propidium iodide); type: cell-based, Trypanosoma brucei; conditions: for distribution of cell cycle stages by flow cytometry (DNA content): 1 to 16 µM, 12 h, propidium iodide
Source text: The inhibition of the growth of T. brucei BSF in HMI-11 medium in single micromolar EC50 values (Table 1) was somewhat surprising considering the dispensability of APRT enzymes for these cells. […] To get deeper insights into the in vivo action of ANPs on APRT enzyme we tested their cytotoxicity on wild type cells grown in HMI-11^adenine medium. In this medium, the cells rely on the activity of the APRT enzyme to produce AMP and other […]. […] To corroborate this observation, we also tested cells with induced ectopic expression of V5-tagged APRT1 in both types of media and in the presence of the selected ANPs. […] The changes in the distribution of different cell cycle stages within a population were further assessed by flow cytometry assaying the DNA content by staining the cells with propidium iodide (Fig. 8A).
BFS trypanosomes in log phase were resuspended in HMI-11 medium to a density of 2 × 10^5 cells ml^−1. Test compounds at concentrations ranging from 1 to 16 µM were added to the cell suspension followed by 12 h incubation at 37 °C. The cell cycle analysis was performed as described previously. Briefly, approximately 2 × 10^6 cells were washed with PBS and fixed in 1 ml of 70% methanol in 1 × PBS and stored at 4 °C overnight. Following a PBS wash, samples were incubated with 10 µg/ml propidium iodide and 9.6 µg/ml of RNaseA at 37 °C for 45 min. Samples were analyzed on a FACS Canto II (BD) collecting 10,000 gated events.

[4] = BSF427, HMI-11^adenine medium (50 μM adenine as sole purine)

Sequence of recombinant T. brucei APRT1 (Q57V32 entry or part of it): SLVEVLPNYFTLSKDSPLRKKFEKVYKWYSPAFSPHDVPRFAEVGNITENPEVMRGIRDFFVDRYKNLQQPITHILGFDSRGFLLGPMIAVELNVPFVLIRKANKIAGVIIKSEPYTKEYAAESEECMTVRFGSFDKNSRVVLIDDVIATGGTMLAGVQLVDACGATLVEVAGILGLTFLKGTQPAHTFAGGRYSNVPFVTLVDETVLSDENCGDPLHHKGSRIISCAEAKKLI

Ki ([1]; read-out: APRT1 Ki): 10.1 ± 1.1 µM
SMILES: Nc1ncnc2c1ncn2CCCSCP(=O)(O)O [3a, 5-(Adenin-9-yl)-2-thiapentanephosphonic acid, disodium salt]

Ki ([1]; read-out: APRT1 Ki): > 30 µM
SMILES: Nc1ncnc2c1ncn2CCSCCP(=O)(O)O [3b, 5-(Adenin-9-yl)-3-thiapentanephosphonic acid, disodium salt]

Ki ([1]; read-out: APRT1 Ki): > 30 µM
SMILES: Nc1ncnc2c1ncn2CCC[S+]([O-])CP(=O)(O)O (centres unmarked) [4a, 5-(Adenin-9-yl)-2-oxo-2-thiapentanephosphonic acid, disodium salt]

SMILES: Nc1ncnc2c1ncn2CC[S+]([O-])CCP(=O)(O)O (centres unmarked) [4b, Sodium 5-(adenin-9-yl)-3-oxo-3-thiapentanephosphonate]
Ki ([1]; APRT1 Ki): > 30 µM

Ki ([1]; read-out: APRT1 Ki): 4.92 ± 0.43 µM
SMILES: Nc1ncnc2c1ncn2CCN(CCNCCO)CCP(=O)(O)O [9a, 9-[(N-(2-((2-Hydroxyethyl)amino)ethyl)-N-(2-phosphonoethyl))-2-aminoethyl]adenine triethylammonium salt]

Ki ([1]; read-out: APRT1 Ki): > 30 µM
SMILES: N#CCCN(CCn1cnc2c(N)ncnc21)CCP(=O)(O)O [9b, 9-[(N-(2-Cyanoethyl)-N-(2-phosphonoethyl))-2-aminoethyl]adenine]

Ki ([1]; read-out: APRT1 Ki): > 30 µM
SMILES: Nc1ncnc2c1ncn2CCN(CCP(=O)(O)O)CCP(=O)(O)O [9c, 9-[(N,N-(Bis-2-phosphonoethyl))-2-aminoethyl]adenine]

Ki ([1]; read-out: APRT1 Ki): 3.88 ± 0.29 µM
SMILES: Nc1ncnc2c1ncn2CCN(CCOCP(=O)(O)O)CCP(=O)(O)O [9d, 9-[(N-Phosphonoethyl-N-phosphonomethoxyethyl)-2-aminoethyl]adenine]

Ki ([1]; read-out: APRT1 Ki): > 30 µM
SMILES: Nc1ncnc2c1ncn2CCN(CCCC(=O)O)CCP(=O)(O)O [9f, 9-[(N-(Carboxypropyl)-N-(2-phosphonoethyl))-2-aminoethyl]adenine]

Ki ([1]; read-out: APRT1 Ki): 3.07 ± 0.25 µM
SMILES: Nc1ncnc2c1ncn2CCN(CCOCCP(=O)(O)O)CCP(=O)(O)O [9g, 9-[(N-Phosphonoethyl-N-phosphonoethoxyethyl)-2-aminoethyl]adenine]

SMILES: CC(C)OC(=O)[C@H](Cc1ccccc1)NP(=O)(CSCCCn1cnc2c(N)ncnc21)N[C@@H](Cc1ccccc1)C(=O)OC(C)C [24a, 9-(5-(Bis((S-1-isopropoxycarbonyl-2-phenylethyl)amino)phosphoryl)-4-thiapentyl)adenine]
viability at 10 µM [2]: 99% | viability at 10 µM [3]: 89% | EC50 (T. brucei BSF427; [4]): 6.36 µM | EC50 (T. brucei BSF427; BSF427, HMI-11 medium): 6.16 µM | direct microscopic observation of exposed T. brucei cells (T. brucei BSF cells): problems in the cell cycle | distribution of cell cycle stages by flow cytometry (DNA content) (T. brucei BSF cells): increase in the number of cells in G1-phase

SMILES: CC(C)OC(=O)[C@H](Cc1ccccc1)NP(=O)(CCSCCn1cnc2c(N)ncnc21)N[C@@H](Cc1ccccc1)C(=O)OC(C)C [24b, 9-(5-(Bis((S-1-isopropoxycarbonyl-2-phenylethyl)amino)phosphoryl)-3-thiapentyl)adenine]
viability at 10 µM [2]: 98% | viability at 10 µM [3]: 89% | EC50 (T. brucei BSF427; [4]): 6.16 µM | EC50 (T. brucei BSF427; BSF427, HMI-11 medium): 6.36 µM | direct microscopic observation of exposed T. brucei cells (T. brucei BSF cells): problems in the cell cycle | distribution of cell cycle stages by flow cytometry (DNA content) (T. brucei BSF cells): increase in the number of cells in G1-phase

Ki ([1]; read-out: APRT1 Ki): 21.3 ± 2.1 µM
SMILES: Nc1ncnc2c1ncn2CCN(CCN(CCP(=O)(O)O)CCP(=O)(O)O)CCP(=O)(O)O [compound 17, (2-((2-((2-(Adenine-9-yl)ethyl)(2-phosphonoethyl)amino)ethyl)(2-phosphonoethyl)amino)ethyl)phosphonic acid]

Ki ([1]; read-out: APRT1 Ki): 27.7 ± 4.5 µM
SMILES: Nc1ncnc2c1ncn2CC(COCCP(=O)(O)O)OCCP(=O)(O)O (centres unmarked) [compound 20, 4-(Adenin-9-ylmethyl)-3,6-dioxaoctane-1,8-diphosphonic acid]

Ki ([1]; read-out: APRT1 Ki): > 30 µM
SMILES: Nc1ncnc2c1ncn2CCOC(CO)CP(=O)(O)O (centres unmarked) [compound 21, 9-[2-(3-Hydroxy-1-phosphonopropan-2-yloxy)ethyl]adenine]

Ki ([1]; read-out: APRT1 Ki): 5.15 ± 0.69 µM
SMILES: Nc1ncnc2c1ncn2CC(COCP(=O)(O)O)COCP(=O)(O)O [compound 22, {[(2-[(Adenin-9-yl)methyl]propane-1,3-diyl)bis(oxy)]bis(methylene)}diphosphonic acid]

EC50 (T. brucei BSF427; BSF427, HMI-11 medium): 3.7 µM
SMILES: CCOC(=O)[C@H](Cc1ccccc1)NP(=O)(COCC(COCP(=O)(N[C@@H](Cc1ccccc1)C(=O)OCC)N[C@@H](Cc1ccccc1)C(=O)OCC)Cn1cnc2c(N)ncnc21)N[C@@H](Cc1ccccc1)C(=O)OCC [compound 25, Tetra-(L-phenylalanineethyl ester) prodrug of {[(2-[(adenin-9-yl)methyl]propane-1,3-diyl)bis(oxy)]bis(methylene)}diphosphonic acid]
viability at 10 µM [2]: 99% | viability at 10 µM [3]: 90%

EC50 (T. brucei BSF427; BSF427, HMI-11 medium): 1.55 µM
SMILES: CCOC(=O)[C@H](Cc1ccccc1)NP(=O)(CCOCC(Cn1cnc2c(N)ncnc21)OCCP(=O)(N[C@@H](Cc1ccccc1)C(=O)OCC)N[C@@H](Cc1ccccc1)C(=O)OCC)N[C@@H](Cc1ccccc1)C(=O)OCC (stereo partly drawn) [compound 26, Tetra-(L-phenylalanineethyl ester) prodrug of (2-[3-(adenin-9-yl)-2-(2-bis(hydroxyphosphoryl)ethoxy)propoxy]ethyl}phosphonic acid]
viability at 10 µM [2]: 100% | viability at 10 µM [3]: 88%
